Literature values as cited in EP0530832A1, “Method for processing a silver halide color photographic light-sensitive material” (KONICA CORPORATION, priority 1991, dated 1993).

System: rats
Settings: rats in an environment containing 15 ppm of formalin

C=O [formalin]
nasal cancers: developed nasal cancers
